The source of these data is PMC12955800 (ACS chemical neuroscience, 2021).

The subject of one assay is A. suum ovijector tissue. As to the kind of experiment: Ascaris suum ovijector bioassay.
Assay [1] relates to C. elegans (acs-20 cuticle defective mutant). As to the kind of experiment: C. elegans body length assay. The settings on record: 100 μM synthetic As-FLP-18A, 96 h, 20 °C, vs S-medium, n > 9 nematodes. It is filed as in vivo, Caenorhabditis elegans.
For assay [2] the test system is unchanged. As to the kind of experiment: wMicroTracker motility assay. It is filed as in vivo, Caenorhabditis elegans. As to conditions: 10 μM synthetic As-FLP-18A, M9, 12 h, n > 4 wells.
The mark [3] stands for this setting: synthetic As-FLP-18A, 10 μM, HBSS, 10 min.

“Also recorded” adds a separate entry of the source.

GFGDEMSMPGVLR [truncated As-FLP-18A]: the “effect on ovijector contractility” value in the assay with A. suum ovijector tissue (truncated synthetic peptide GFGDEMSMPGVLR, 10 μM) was “lacks biological activity in A. suum muscle physiology assays”.
As to GFGDEMSMPGVLRF-NH2 [As-FLP-18A], the “effect on ovijector muscle” value in the assay with A. suum ovijector tissue (synthetic As-FLP-18A, 1 nM to 10 μM, 10 min) is on record as “concentration dependent myoexcitatory effects”; in the assay on A. suum ovijector tissue (synthetic As-FLP-18A, 10 nM to 1 μM), “consistent excitatory effects”; in the assay on A. suum ovijector tissue (synthetic As-FLP-18A, 1 μM, RT-2-like), “transient muscle contraction followed by muscle paralysis”. Besides, the “response type (RT) on ovijector” value with A. suum ovijector tissue (synthetic As-FLP-18A, 1 μM to 10 nM, 10 min) is “RT-2 responses only”. The “preparations with RT-1 response” value in the assay with A. suum ovijector tissue (setting [3]) is on record as 64.2 % of preparations. In addition, the “preparations with RT-2 response” value in the assay on A. suum ovijector tissue (setting [3]) was 35.7 % of preparations. Besides, the “C. elegans growth (body length)” value in assay [1] was “this effect was mirrored; also recorded: significantly reduced”. Further, in assay [2], the “C. elegans motility (locomotory activity)” value is given as “significant inhibition of locomotion; also recorded: significantly reduced”.
